Source: ChEMBL document CHEMBL1201862, “PubChem BioAssay data set” (2004)
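Each compound was tested at five concentrations against cells in 96-well plates for 48 hours. At the GI50, growth is halved.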 Active and inactive are the calls of the source. Rule as the data show it: active = GI50 up to about 1.1 µM and inactive = higher.

Legend:
Experiment in all cases: DTP human tumour cell line panel, 48 h
DMS-273 = tested on: DMS-273
HCT-15 = tested on: HCT-15
RXF 631 = tested on: RXF 631
HOP-92 = tested on: HOP-92
SR = tested on: SR
ACHN = tested on: ACHN
HCT-116 = tested on: HCT-116
A498 = tested on: A498
TK-10 = tested on: TK-10
SN12C = tested on: SN12C
CAKI-1 = tested on: CAKI-1
XF498 = tested on: XF498
KM12 = tested on: KM12
SF-268 = tested on: SF-268
RXF 393 = tested on: RXF 393
OVCAR-5 = tested on: OVCAR-5
SW-620 = tested on: SW-620
OVCAR-8 = tested on: OVCAR-8
NCI-H226 = tested on: NCI-H226
HOP-62 = tested on: HOP-62
LXFL 529 = tested on: LXFL 529
HCC 2998 = tested on: HCC 2998
SNB-78 = tested on: SNB-78
LOX IMVI = tested on: LOX IMVI
SF-295 = tested on: SF-295
SK-MEL-2 = tested on: SK-MEL-2
UO-31 = tested on: UO-31
EKVX = tested on: EKVX
UACC-257 = tested on: UACC-257
COLO 205 = tested on: COLO 205
A549 = tested on: A549
Malme-3M = tested on: Malme-3M
HOP-18 = tested on: HOP-18
MOLT-4 = tested on: MOLT-4
K562 = tested on: K562
NCI-H522 = tested on: NCI-H522
NCI-H23 = tested on: NCI-H23
SK-MEL-28 = tested on: SK-MEL-28
NCI-H460 = tested on: NCI-H460
CCRF-CEM = tested on: CCRF-CEM
HL-60 = tested on: HL-60
DLD-1 = tested on: DLD-1
OVCAR-3 = tested on: OVCAR-3
SK-MEL-5 = tested on: SK-MEL-5
KM-20L2 = tested on: KM-20L2
SNB-19 = tested on: SNB-19
RPMI-8226 = tested on: RPMI-8226
U-251 = tested on: U-251
SNB-75 = tested on: SNB-75
786-0 = tested on: 786-0
M14 = tested on: M14
OVCAR-4 = tested on: OVCAR-4
HT-29 = tested on: HT-29
DMS-114 = tested on: DMS-114
M19-MEL = tested on: M19-MEL
UACC-62 = tested on: UACC-62
SF-539 = tested on: SF-539
IGROV-1 = tested on: IGROV-1
SK-OV-3 = tested on: SK-OV-3

O=C1[C@@H]2C(c3ccc(Br)cc3)=NO[C@@H]2C(=O)N1c1ccc(Cc2ccc(N3C(=O)[C@H]4C(c5ccc(Br)cc5)=NO[C@H]4C3=O)cc2)cc1
GI50 (DMS-273): > 40 µM (inactive)
GI50 (HCT-15): > 40 µM
GI50 (RXF 631): > 40 µM (inactive)
GI50 (HOP-92): > 40 µM (inactive)
GI50 (SR): 19.1 µM (inactive)
GI50 (ACHN): > 40 µM (inactive)
GI50 (HCT-116): > 40 µM (inactive)
GI50 (A498): 0.0139 µM (active)
GI50 (TK-10): 16.9 µM (inactive)
GI50 (SN12C): > 40 µM (inactive)

CCOc1ccc(NC(=O)CCC(=O)NN)cc1
GI50 (CAKI-1): > 100 µM (inactive)
GI50 (XF498): 31.7 µM (inactive)
GI50 (KM12): > 100 µM (inactive)
GI50 (SF-268): > 100 µM (inactive)
GI50 (DMS-273): > 100 µM (inactive)
GI50 (RXF 393): > 100 µM (inactive)
GI50 (OVCAR-5): > 100 µM (inactive)
GI50 (HCT-15): 68.7 µM
GI50 (SW-620): > 100 µM (inactive)
GI50 (HOP-92): > 100 µM (inactive)
GI50 (OVCAR-8): > 100 µM (inactive)
GI50 (NCI-H226): > 100 µM (inactive)
GI50 (HOP-62): > 100 µM (inactive)
GI50 (LXFL 529): > 100 µM (inactive)
GI50 (HCC 2998): > 100 µM (inactive)
GI50 (SNB-78): > 100 µM (inactive)
GI50 (LOX IMVI): > 100 µM (inactive)
GI50 (SF-295): > 100 µM (inactive)
GI50 (SK-MEL-2): > 100 µM (inactive)
GI50 (UO-31): > 100 µM (inactive)
GI50 (EKVX): > 100 µM (inactive)
GI50 (ACHN): > 100 µM (inactive)
GI50 (UACC-257): > 100 µM (inactive)
GI50 (COLO 205): > 100 µM (inactive)
GI50 (A549): > 100 µM (inactive)
GI50 (Malme-3M): > 100 µM (inactive)
GI50 (HOP-18): > 100 µM (inactive)
GI50 (MOLT-4): > 100 µM (inactive)
GI50 (K562): > 100 µM (inactive)
GI50 (NCI-H522): > 100 µM (inactive)
GI50 (NCI-H23): > 100 µM (inactive)
GI50 (SK-MEL-28): > 100 µM (inactive)
GI50 (TK-10): > 100 µM (inactive)
GI50 (NCI-H460): > 100 µM (inactive)
GI50 (CCRF-CEM): > 100 µM (inactive)
GI50 (HL-60): > 100 µM (inactive)
GI50 (DLD-1): > 100 µM (inactive)
GI50 (OVCAR-3): > 100 µM (inactive)
GI50 (SN12C): 94 µM (inactive)
GI50 (SK-MEL-5): > 100 µM (inactive)
GI50 (KM-20L2): > 100 µM (inactive)
GI50 (SNB-19): > 100 µM (inactive)
GI50 (RPMI-8226): > 100 µM (inactive)
GI50 (U-251): > 100 µM (inactive)
GI50 (SNB-75): > 100 µM (inactive)
GI50 (786-0): > 100 µM (inactive)
GI50 (M14): > 100 µM (inactive)
GI50 (OVCAR-4): > 100 µM (inactive)
GI50 (HT-29): > 100 µM (inactive)
GI50 (DMS-114): > 100 µM (inactive)

COc1cc2c(oc(=O)c3c4occc4cc(OC)c23)c2cccc(OCc3ccccc3)c12
GI50 (CAKI-1): > 100 µM (inactive)
GI50 (XF498): 42 µM (inactive)
GI50 (KM12): > 100 µM (inactive)
GI50 (SF-268): > 100 µM (inactive)
GI50 (DMS-273): 38.9 µM (inactive)
GI50 (RXF 393): 78.3 µM (inactive)
GI50 (OVCAR-5): > 100 µM (inactive)
GI50 (HCT-15): > 100 µM
GI50 (M19-MEL): 61.5 µM (inactive)
GI50 (SW-620): > 100 µM (inactive)
GI50 (UACC-62): 86.1 µM (inactive)
GI50 (HOP-92): > 100 µM (inactive)
GI50 (OVCAR-8): > 100 µM (inactive)
GI50 (NCI-H226): > 100 µM (inactive)
GI50 (HOP-62): > 100 µM (inactive)
GI50 (LXFL 529): 64.7 µM (inactive)
GI50 (HCC 2998): > 100 µM (inactive)
GI50 (SNB-78): 37.8 µM (inactive)
GI50 (LOX IMVI): > 100 µM (inactive)
GI50 (SF-295): 88.9 µM (inactive)
GI50 (SK-MEL-2): > 100 µM (inactive)
GI50 (SR): > 100 µM (inactive)
GI50 (UO-31): > 100 µM (inactive)
GI50 (EKVX): > 100 µM (inactive)
GI50 (ACHN): > 100 µM (inactive)
GI50 (UACC-257): > 100 µM (inactive)
GI50 (COLO 205): > 100 µM (inactive)
GI50 (HCT-116): > 100 µM (inactive)
GI50 (A549): > 100 µM (inactive)
GI50 (Malme-3M): 35.6 µM (inactive)
GI50 (HOP-18): > 100 µM (inactive)
GI50 (MOLT-4): > 100 µM (inactive)
GI50 (K562): > 100 µM (inactive)
GI50 (NCI-H522): > 100 µM (inactive)
GI50 (SF-539): > 100 µM (inactive)
GI50 (NCI-H23): > 100 µM (inactive)
GI50 (SK-MEL-28): 49.4 µM (inactive)
GI50 (A498): 34.4 µM (inactive)
GI50 (TK-10): > 100 µM (inactive)
GI50 (NCI-H460): 44.9 µM (inactive)
GI50 (CCRF-CEM): > 100 µM (inactive)
GI50 (HL-60): 65.8 µM (inactive)
GI50 (DLD-1): > 100 µM (inactive)
GI50 (OVCAR-3): > 100 µM (inactive)
GI50 (SN12C): > 100 µM (inactive)
GI50 (SK-MEL-5): > 100 µM (inactive)
GI50 (KM-20L2): > 100 µM (inactive)
GI50 (SNB-19): > 100 µM (inactive)
GI50 (RPMI-8226): > 100 µM (inactive)
GI50 (IGROV-1): > 100 µM (inactive)
GI50 (U-251): > 100 µM (inactive)
GI50 (SNB-75): 40 µM (inactive)
GI50 (786-0): 41.4 µM (inactive)
GI50 (M14): 80.2 µM (inactive)
GI50 (OVCAR-4): 44.4 µM (inactive)
GI50 (HT-29): > 100 µM (inactive)
GI50 (SK-OV-3): > 100 µM (inactive)
GI50 (DMS-114): > 100 µM (inactive)

O=C(/C(=C\c1ccccc1)CN1CCOCC1)c1ccc(Br)cc1
GI50 (CAKI-1): 1.88 µM (inactive)
GI50 (XF498): 4.89 µM (inactive)
GI50 (KM12): 1.87 µM (inactive)
GI50 (SF-268): 3.63 µM (inactive)
GI50 (DMS-273): 2.88 µM (inactive)
GI50 (RXF 393): 2.51 µM (inactive)
GI50 (OVCAR-5): 3.48 µM (inactive)
GI50 (HCT-15): 1.93 µM
GI50 (M19-MEL): 1.73 µM (inactive)
GI50 (SW-620): 1.18 µM (inactive)
GI50 (UACC-62): 1.55 µM (inactive)
GI50 (HOP-92): 5.47 µM (inactive)
GI50 (OVCAR-8): 1.61 µM (inactive)
GI50 (NCI-H226): 6.68 µM (inactive)
GI50 (HOP-62): 6.27 µM (inactive)
GI50 (LXFL 529): 1.28 µM (inactive)
GI50 (HCC 2998): 16 µM (inactive)
GI50 (SNB-78): 5.61 µM (inactive)
GI50 (LOX IMVI): 1.65 µM (inactive)
GI50 (SF-295): 5.97 µM (inactive)
GI50 (SK-MEL-2): 1.92 µM (inactive)
GI50 (SR): 1.16 µM (inactive)
GI50 (UO-31): 1.8 µM (inactive)
GI50 (EKVX): 3.06 µM (inactive)
GI50 (ACHN): 1.75 µM (inactive)
GI50 (UACC-257): 2.59 µM (inactive)
GI50 (COLO 205): 3.25 µM (inactive)
GI50 (HCT-116): 1.72 µM (inactive)
GI50 (A549): 6.64 µM (inactive)
GI50 (Malme-3M): 1.78 µM (inactive)
GI50 (HOP-18): 1.81 µM (inactive)
GI50 (MOLT-4): 2.33 µM (inactive)
GI50 (K562): 1.15 µM (inactive)
GI50 (NCI-H522): 1.28 µM (inactive)
GI50 (SF-539): 2.12 µM (inactive)
GI50 (NCI-H23): 3.24 µM (inactive)
GI50 (SK-MEL-28): 1.76 µM (inactive)
GI50 (A498): 6.12 µM (inactive)
GI50 (TK-10): 5.37 µM (inactive)
GI50 (NCI-H460): 3.01 µM (inactive)
GI50 (CCRF-CEM): 0.714 µM (active)
GI50 (HL-60): 1.5 µM (inactive)
GI50 (DLD-1): 1.51 µM (inactive)
GI50 (OVCAR-3): 2.44 µM (inactive)
GI50 (SN12C): 2.06 µM (inactive)
GI50 (SK-MEL-5): 1.91 µM (inactive)
GI50 (KM-20L2): 2.65 µM (inactive)
GI50 (SNB-19): 5.79 µM (inactive)
GI50 (RPMI-8226): 2.43 µM (inactive)
GI50 (IGROV-1): 4.97 µM (inactive)
GI50 (U-251): 2.51 µM (inactive)
GI50 (SNB-75): 10.8 µM (inactive)
GI50 (786-0): 1.57 µM (inactive)
GI50 (M14): 1.78 µM (inactive)
GI50 (OVCAR-4): 2.77 µM (inactive)
GI50 (HT-29): 2.05 µM (inactive)
GI50 (SK-OV-3): 3.61 µM (inactive)
GI50 (DMS-114): 1.78 µM (inactive)
